From ChEMBL document CHEMBL1126241, “Synthesis, characterization, and Ca2+ antagonistic activity of diltiazem metabolites” (J Med Chem, 1992)

The compounds below were run on Cricetinae gen. sp. (assay: Concentration (10 e-6 M) required to block [Ca2+]-induced contraction of K+-depolarized hamster aorta).
Assay type: functional

| Compound | IC50 |
| --- | --- |
| CC(=O)OC1C(=O)N(CCN(C)C)c2ccccc2SC1c1ccc(O)cc1 (configuration not stated) | 40.4 µM |
| CN(C)CCN1C(=O)C(O)C(c2ccc(O)cc2)Sc2ccccc21 (configuration not stated) | 45.5 µM |
| CNCCN1C(=O)C(O)C(c2ccc(O)cc2)Sc2ccccc21 (configuration not stated) | 127 µM |
| CNCCN1C(=O)C(OC(C)=O)C(c2ccc(O)cc2)Sc2ccccc21 (configuration not stated) | 112 µM |

The next compounds have a lower IC50 than those just listed; values first:

| IC50 | Compound |
| --- | --- |
| 3.27 µM | CNCCN1C(=O)C(OC(C)=O)C(c2ccc(OC)cc2)Sc2ccccc21 (configuration not stated) |
| 20.2 µM | CNCCN1C(=O)C(O)C(c2ccc(OC)cc2)Sc2ccccc21 (configuration not stated) |
| 0.98 µM | COc1ccc([C@@H]2Sc3ccccc3N(CCN(C)C)C(=O)[C@@H]2OC(C)=O)cc1 [DILTIAZEM] |
